Results reported in ChEMBL document CHEMBL4145506, “Synthesis and biological evaluation of 4,6-diphenyl-2-(1H-pyrrol-1-yl)nicotinonitrile analogues of crolibulin and combretastatin A-4” (Eur J Med Chem, 2018).
pIC50: −log10 of the molar value. Active and inactive are the calls of the source. The rule behind the calls is not given here.

Tests used:
HT-29 [1] = assay: cells; conditions: Homo sapiens, HT-29, 72 h
NCI-H460 [2] = assay: Antiproliferative activity against human H460 cells after 72 hrs by MTT assay; type: functional, cell-based; conditions: NCI-H460, 72 h
MKN-45 = assay: cells; conditions: Homo sapiens, MKN-45, 72 h
Description: Antiproliferative activity against human MKN45 cells after 72 hrs by MTT assay

SMMC-7721 = assay: Antiproliferative activity against human SMMC7721 cells after 72 hrs by MTT assay; type: functional, cell-based; conditions: SMMC-7721, 72 h
A549 [3] = assay: cells; conditions: Homo sapiens, A549, 72 h
Description: Antiproliferative activity against human A549 cells after 72 hrs by MTT assay

A549 [4] = assay: Induction of microtubule depolymerization in human A549 cells assessed as scattered short microtubule fragment formation in cytoplasm at 30 nM after 24 hrs by DAPI staining based immunofluorescence microscopic method; type: cell-based
A549 [5] = assay: Potency index, ratio of crolibulin IC50 to compound IC50 for human A549 cells; type: functional
A549 [6] = assay: Potency index, ratio of CA-4 IC50 to compound IC50 for human A549 cells; type: functional
NCI-H460 [7] = assay: Potency index, ratio of CA-4 IC50 to compound IC50 for human H460 cells; type: functional
HT-29 [8] = assay: Potency index, ratio of crolibulin IC50 to compound IC50 for human HT-29 cells; type: functional

Row | Structure (SMILES) | pIC50 (HT-29 [1]) | pIC50 (NCI-H460 [2]) | pIC50 (MKN-45) | pIC50 (SMMC-7721) | pIC50 (A549 [3]) | Activity (A549 [4]) | Ratio IC50 (A549 [5]) | Ratio IC50 (A549 [6]) | Ratio IC50 (NCI-H460 [7]) | Ratio IC50 (HT-29 [8])
1 | CCNCc1cccn1-c1nc(-c2ccc(F)cc2F)cc(-c2cc(OC)c(OC)c(OC)c2)c1C#N | 5.48 | 5.54 | 4.88 | 5.38 | 5.39 | – | – | – | – | –
2 | COc1ccc(-c2cc(-c3ccc(F)cc3)nc(-n3cccc3CN(C)C)c2C#N)c(OC)c1OC | 5.43 | 5.24 | 4.34 | 5.63 | 4.90 | – | – | – | – | –
3 | CNCc1cccn1-c1nc(-c2ccc(F)cc2F)cc(-c2cc(OC)c(OC)c(OC)c2)c1C#N | 6.02 | 5.53 | 5.20 | 4.48 | 5.02 | – | – | – | – | –
4 | COc1ccc(-c2cc(-c3ccc(F)cc3)nc(-n3cccc3CN3CCC(C)CC3)c2C#N)c(OC)c1OC | 5.86 | 5.41 | 4.33 | 4.32 | 5.16 | – | – | – | – | –
5 | COc1cc(-c2cc(-c3ccc(F)cc3F)nc(-n3cccc3CN3CCN(C)CC3)c2C#N)cc(OC)c1OC | 5.75 | 5.34 | 4.40 | 4.47 | 5.33 | – | – | – | – | –
6 | COc1cc(-c2cc(-c3ccc(F)cc3)nc(-n3cccc3CN3CCOCC3)c2C#N)cc(OC)c1OC | – | 5.25 | – | 4.73 | – | – | – | – | – | –
7 | CCNCc1cccn1-c1nc(-c2ccc(F)cc2)cc(-c2cc(OC)c(OC)c(OC)c2)c1C#N | 5.92 | 5.81 | 4.37 | 4.88 | 4.77 | – | – | – | – | –
8 | COc1cc(-c2cc(-c3ccc(F)cc3F)nc(-n3cccc3CNC(C)C)c2C#N)cc(OC)c1OC | 5.56 | 5.36 | 4.24 | 4.66 | 4.80 | – | – | – | – | –
9 | COc1ccc(-c2cc(-c3ccc(F)cc3)nc(-n3cccc3CN3CCN(C)CC3)c2C#N)c(OC)c1OC | 7.22 | 6.96 | 4.99 | 4.74 | 5.34 | – | – | – | – | –
10 | CNCc1cccn1-c1nc(-c2ccc(F)cc2)cc(-c2ccc(OC)c(OC)c2OC)c1C#N | 7.22 | 6.59 | 4.42 | 4.92 | 4.84 | – | – | – | – | –
11 | COc1cc(-c2cc(-c3ccc(F)cc3F)nc(-n3cccc3CN3CCC(C)CC3)c2C#N)cc(OC)c1OC | 5.06 | 5.28 | 5.23 | 5.11 | 5.09 | – | – | – | – | –
12 | COc1ccc(/C=C\c2cc(OC)c(OC)c(OC)c2)cc1O [COMBRETASTATIN A4] | 7.22 | 7.10 | 6.68 | 5.76 | 6.35 | Active | – | – | – | –
13 | COc1cc(-c2cc(-c3ccc(F)cc3F)nc(-n3cccc3CN3CCOCC3)c2C#N)cc(OC)c1OC | 5.20 | 4.90 | 4.40 | 4.39 | 4.96 | – | – | – | – | –
14 | CNCc1cccn1-c1nc(-c2ccc(F)cc2)cc(-c2cc(OC)c(OC)c(OC)c2)c1C#N | 7.10 | 7.22 | 5.65 | 5.53 | 7.52 | Active | 6.9 - 13 | 1.3 - 15 | 1.3 - 15 | 6.9 - 13
15 | COc1cc([C@H]2C(C#N)=C(N)Oc3c2ccc(N)c3N)cc(Br)c1OC [CROLIBULIN] | 6.26 | 7.52 | 6.77 | – | 6.41 | – | – | – | – | –
16 | COc1cc(-c2cc(-c3ccc(F)cc3F)nc(-n3cccc3CN(C)C)c2C#N)cc(OC)c1OC | 5.60 | 5.21 | 5.14 | 4.93 | 4.97 | – | – | – | – | –
17 | COc1cc(-c2cc(-c3ccc(F)cc3)nc(-n3cccc3CN(C)C)c2C#N)cc(OC)c1OC | 7.00 | 6.51 | 4.98 | 4.68 | 6.77 | – | – | – | – | –
18 | COc1cc(-c2cc(-c3ccc(F)cc3)nc(-n3cccc3CN3CCCC3)c2C#N)cc(OC)c1OC | 5.92 | 5.08 | 4.45 | 4.43 | 4.96 | – | – | – | – | –
19 | COc1cc(-c2cc(-c3ccc(F)cc3)nc(-n3cccc3CN3CCC(C)CC3)c2C#N)cc(OC)c1OC | – | 7.15 | – | 5.23 | – | – | – | – | – | –
20 | COc1cc(-c2cc(-c3ccc(F)cc3)nc(-n3cccc3CN3CCN(C)CC3)c2C#N)cc(OC)c1OC | – | 7.30 | – | 5.36 | – | – | – | – | – | –
21 | COc1cc(-c2cc(-c3ccc(F)cc3)nc(-n3cccc3)c2C#N)cc(OC)c1OC | 5.03 | 4.67 | 4.23 | 4.21 | 4.36 | – | – | – | – | –
22 | COc1cc(-c2cc(-c3ccc(F)cc3)nc(-n3cccc3CNC(C)C)c2C#N)cc(OC)c1OC | 7.00 | 6.62 | 4.41 | 4.46 | 5.08 | – | – | – | – | –
23 | COc1cc(-c2cc(-c3ccc(F)cc3F)nc(-n3cccc3CN3CCCC3)c2C#N)cc(OC)c1OC | 5.23 | 5.37 | 4.37 | 4.39 | 4.96 | – | – | – | – | –
